Results on four compounds are retold here after US9863934B2, “Screening methods for cognitive enhancers” (Dart Neuroscience (Cayman) Ltd., priority 2002, dated 2018).

Entries after “also recorded” stand apart in the source; their conditions may differ.

One data set has as its system human CREB RNA. Briefly: human CREB bDNA assay. It counts as cell-based. The text has this: CREB 1 and CREB 3 oligos have identical sequence homology with both mouse and human. CREB 17 has a single base mismatch.
Data set [1] concerns CREB mRNA in Neuro2a cells. Briefly: bDNA assay of CREB mRNA after transfection of CREB LNA antisense oligos (FIG. 3). The conditions noted are these: higher concentration (0.5 :M). It counts as cell-based, Mus musculus. The protocol: Detection of CREB mRNA with the bDNA Assay. Mus musculus Neuro2a cells were obtained from American Type Culture Collection (ATCC, Cat. No. CCL-131; Manassas, Va.). Cells were plated in Modified Eagle's Minimum Essential Media (Minimum essential medium (Eagle) with 2 mM L-glutamine and Earle's BSS adjusted to contain 1.5 g/L sodium bicarbonate, 0.1 mM non-essential amino acids, and 1.0 mM sodium pyruvate, 90%; fetal bovine serum, […]) in a 96-microwell format at 2×10^4 cells per well. Cells were maintained at 37 C. and 5% CO2 overnight before transfecting with CREB Locked Nucleic Acid (LNA) oligonucleotides.
Cells were transfected using Lipofectamine 2000 (hivitrogen, Carlsbad, Calif.) with modifications to the manufacturer's protocol. […]
The direct quantitation of CREB messenger RNA (mRNA) following transfection of antisense oligos, was detected using the QuantiGene Expression Kit according to the manufacturer's protocol (Bayer Corporation; Tarrytown, N.Y.). […] The luminescence of each well was measured in a Wallac Victor2 V (Perkin Elmer) plate luminometer at 45 C. […]

The test system of a further data set is normal mice. Briefly: memory formation in normal mice after weak or strong training (% Freezing, FIG. 1). The format is in vivo. The text has this: FIG. 1 is a bar graph showing the results of drug-induced (partial) enhancement of memory in normal mice by rolipram, a prototypical phosphodiesterase (PDE) inhibitor. Five-day retention after weak training (2×) is lower than strong training (5×). Only memory after weak training is enhanced by bilateral hippocampal injections (1 :l) of rolipram immediately after training. Rolipram reduced the number of training sessions required to produce memory. % Freezing=% Observation time mice spent frozen/motionless.
These Active Hits were evaluated in vivo rodent models of memory formation. To do so efficiently, a new behavioral training protocol was validated, which logically was affected by upstream modulation of the CREB pathway. During initial stages of acquisition, repeated training trials lead to increased cAMP levels. At some point, cAMP levels pass a threshold, and activated PKA (catalytic subunit) is translocated to the nucleus, where it phosphorylates CREB directly or it yields a permissive state for the phosphorylation of CREB by a cofactor. In this context, phosphodiesterase (PDE) inhibitors act to increase cAMP levels beyond the threshold with fewer training trials, thereby producing more long-lasting memory with weaker training.

For the compound “CCTCCgCCgCgTCACTCA (LNA modifications, as printed in the source, key not given here) [CREB1, CREB Locked Nucleic Acid (LNA) antisense oligonucleotide]”, the “knocking down human CREB RNA levels” value with human CREB RNA is reported as “factional in knocking down human CREB RNA levels”.

For the compound “TggTCATTTAgTTACCggTg (as printed in the source, key not given here) [CREB3]”, in data set [1], the “effect on endogenous CREB RNA levels” value is “reduces endogenous CREB RNA levels”. The “knocking down human CREB RNA levels” value with human CREB RNA is listed as “factional in knocking down human CREB RNA levels”.

As for “TggCACTgTTACAgTggT (LNA modifications, as printed in the source, key not given here) [CREB17, CREB LNA antisense oligonucleotide; single base mismatch to human]”, the “knocking down human CREB RNA levels” value in the data set with human CREB RNA was “factional in knocking down human CREB RNA levels”.

As to `COc1ccc(C2CNC(=O)C2)cc1OC1CCCC1` (stereo not drawn) [rolipram], in the data set on normal mice, the “number of training sessions required to produce memory” value is “reduced”. In addition, the “memory (five-day retention, % Freezing) after weak training” value in the data set with normal mice (weak training (2×), not strong training (5×), bilateral hippocampal injections (1 :l) immediately after training) is “effect was established as predicted; also recorded: enhanced”.
